Assay results as given in patent US8962692B2, “Cysteine and cystine prodrugs to treat schizophrenia and reduce drug cravings” (Marquette University, priority 2008, dated 2015).

What was measured:
[1] = system: PCP-induced deficits in sensorimotor gating; experiment: Prepulse inhibition of startle response; reversal of PCP-induced deficits in sensorimotor gating; conditions: for inhibition of startle response (prepulse inhibition): difference relative to rats receiving PCP alone and/or N-acetylcysteine 30 mg/kg: compound pretreatment 60 min, prepulse 2-15 dB above background, Fisher LSD p<0.05
[2] = system: cocaine-induced reinstatement; experiment: Extinction/reinstatement paradigm: cocaine-induced reinstatement of lever pressing; assay type: in vivo; conditions: rats, cocaine 10 mg/kg IP
compulsive drug-seeking = conditions: rodents, preclinical studies; cited from earlier work
cocaine use and craving = conditions: cocaine abusers receiving NAC, clinical data; cited from earlier work
[3] = human subjects; cited from earlier work
[4] = rats, phencyclidine 1.25 mg/kg SC

Row | SMILES | inhibition of startle response (prepulse inhibition): difference relative to rats receiving PCP alone and/or N-acetylcysteine 30 mg/kg [1, 4] | melting point | also measured
1 | O=C1CNC(=O)[C@H](CSSC[C@H]2NC(=O)[C@H](Cc3ccccc3)NC2=O)N1 [Compound 11-a-b] | significant difference |  | 
2 | c1ccc(C2(N3CCCCC3)CCCCC2)cc1 [PCP, phencyclidine, reference compound] |  |  | effect of PCP on prepulse inhibition ([1]; rats, pcp 0-2.0 mg/kg, FIG. 4): disrupt prepulse inhibition
3 | CC(C)(C)SC[C@H]1NC(=O)[C@H](CS)NC1=O [Compound 4e, (6R)-3-(tert-butylthiomethyl)-6-(mercaptomethyl)piperazine-2,5-dione] |  | > 280 °C (dec.) | 
4 | CCOC1=N[C@@H](CSSC[C@H]2N=C(OCC)CN=C2OCC)C(OCC)=NC1 [Compound 5a-D, Bis[(3,6-Diethoxy-2,5-dihy-dro-pyrazin-2-yl)-methanethiol]] | significant difference |  | cocaine-induced reinstatement ([2]; 1 mg/kg (p.o.), comparable to 30 mg/kg NAC): sufficient to block cocaine-induced reinstatement
5 | CCOC1=N[C@@H](CS)C(OCC)=NC1 [Compound 5a, (3,6-Diethoxy-2,5-dihydro-,pyrazin-2-yl)-methanethiol] | significant difference |  | 
6 | O=C1N[C@@H](CSSc2ccccc2)C(=O)N2CCC[C@H]12 [Compound 3b-c, (3R,8aR)-3-((phenyldisulfanyl)methyl)hexahydropyrrolo[1,2-a]pyrazine-1,4-dione] |  | 120 °C | 
7 | O=C1CNC(=O)[C@H](CSSC[C@@H]2NC(=O)CNC2=O)N1 [Compound 7a, Bis[2,5-Piperazinedione, 3-(mercaptomethyl)-]] | significant difference |  | 
8 | CC(=O)N[C@@H](CS)C(=O)O [N-acetyl cysteine] |  |  | cocaine-induced reinstatement ([2]; 30 mg/kg IP, responding 120 min): significant reduction; cocaine-induced reinstatement ([2]; 60 mg/kg IP, responding 120 min): significant reduction; cocaine-induced reinstatement ([2]; given orally): less effective; compulsive drug-seeking (compulsive drug-seeking): effective in blocking compulsive drug-seeking; cocaine use and craving (cocaine use and craving): reduction in cocaine use and craving; safety/tolerability profile [3]: favorable safety/tolerability profile; phencyclidine-induced deficits in sensorimotor gating ([1]; direct delivery into the brain (prefrontal cortex)): reverses phencyclidine-induced deficits in sensorimotor gating; sensorimotor gating (prepulse inhibition) after PCP ([1]; rats, N-acetyl cysteine 30 mg/kg po, pretreated 60 min, phencyclidine 1.25 mg/kg SC): failed to exhibit sensorimotor gating
9 | O=C1CNC(=O)[C@@H](CSC(c2ccccc2)(c2ccccc2)c2ccccc2)N1 (stereo in doubt) [Compound 3c-a, 3-Tritylsulfanylmethyl-piperazine-2,5-dione] |  | 225 to 227 °C | 
10 | O=C1CNC(=O)[C@H](CS)N1 [Compound 4a, 2,5-piperazinedione, 3-(mercaptomethyl)-] | significant difference | 258 °C | 
11 | CCOC1=N[C@@H](CSCC)C(=O)N[C@@H]1Cc1ccccc1 [Compound 6b-b, (3R,6R)-6-Benzyl-5-ethoxy-3-(ethylthiomethyl)-1,6-dihydropyrazin-2(3H)-one] |  | 118 °C | 
12 | CC(C)C1NC(=O)[C@@H](CSSC[C@@H]2NC(=O)CNC2=O)NC1=O (stereo partly shown) [Compound 11-a-d] | significant difference |  | 
13 | CC(C)[C@H]1NC(=O)[C@H](CS)NC1=O [Compound 4d, (6R)-3-isopropyl-6-(mercaptomethyl)piperazine-2,5-dione] |  | > 275 °C | 
